Data from patent US6858235B2, “Antioxidant composition and method of preparation thereof” (Eromlife Co. Ltd., priority 2002, dated 2005).

Experiment: Antioxidant activity using the free radical source DPPH (absorbance at 517 nm)
Format: biochemical
Conditions: for Antioxidant activity RC50: DPPH 0.4 mM, room temperature, 30 minutes, absorbance 517 nm, concentration giving 50% of control absorbance
Protocol: The antioxidant activity of the Rosa multiflora extract of the present invention obtained according to the above method was measured according to the method for measuring antioxidant activity (The Korean Society of Food and Nutrition, Handbook for Experiments in Food and Nutrition, 651p, 2000; Blois, M. S., Nature, 4617:1198, 1958).
In addition, active fractions showing antioxidant activity can be obtained by fractionating and purifying the obtained Rosa multiflora extracts by chromatography. It is preferable to carry out silica gel column chromatography once or twice. Where active fractions obtained by silica gel column chromatography are further subjected to ODS column chromatography, more highly purified active fractions can be obtained. A mixture of chloroform and methanol or a mixture of methanol and distilled water can be used as a developing solvent at the time of chromatography. A flow rate of the developing solvent is generally from 5 Ml/hr to 1000 Ml/hr and preferably from 20 Ml/hr to 500 Ml/hr. The fractions eluted by chromatography are collected in flasks in the amount of 5 Ml to 100 Ml respectively. Active fractions showing antioxidant activity can be obtained by measuring antioxidant activities of the collected fractions. Antioxidant activity can be measured by a known method (The Korean Society of Food and Nutrition, Handbook for Experiments in Food and Nutrition, 651p, 2000; Blois, M. S., Nature, 4617:1198, 1958).
Antioxidant activity was measured according to the method for measuring antioxidant activity using a free radical source, 1,1-diphenyl-2-picrylhydrazyl (DPPH) (The Korean Society of Food and Nutrition, Handbook for Experiments in Food and Nutrition, 651p, 2000; Blois, M. S., Nature, 4617: 1198, 1958). […] 0.8 Ml of DPPH (0.4 mM) solution and 3 Ml of ethanol were added, the reaction was carried out at the room temperature for 30 minutes and absorbance was measured at 517 nm. Antioxidant activity was expressed as a RC50 value. The RC50 represents the concentration of antioxidant (μg/Ml) required to achieve an absorbance equal to 50% of the absorbance of a control in which no antioxidants are contained.

Structure (SMILES): COc1ccc(O)c(C(C)(C)C)c1 [BHA, butylated hydroxy anisole, reference compound]
- Antioxidant activity RC50: 9.2 µg/mL

Structure (SMILES): Oc1cc(O)c2c(c1)O[C@H](c1ccc(O)c(O)c1)[C@@H](O)[C@@H]2c1c(O)cc(O)c2c1O[C@H](c1ccc(O)c(O)c1)[C@@H](O)C2 [Procyanidin B3, catechin-(4α→8)-catechin]
- Antioxidant activity RC50: 3.4 µg/mL
- Antioxidant activity relative to α-tocopherol (times stronger) (compared with the natural antioxidant α-tocopherol, DPPH RC50): 3.8 times
- Antioxidant activity relative to BHA (times stronger) (compared with the synthetic antioxidant BHA, DPPH RC50): 2.7 times

Structure (SMILES): Cc1c(C)c2c(c(C)c1O)CC[C@@](C)(CCC[C@H](C)CCC[C@H](C)CCCC(C)C)O2 [α-tocopherol, reference compound]
- Antioxidant activity RC50: 13.0 µg/mL
